Experimental data from US20240173377A1, “RETRO - INVERSO REGULATORY T CELL EPITOPES” (EpiVax, Inc., priority 2020, published 2024).
Entries after “also recorded” stand apart in the source; their conditions may differ.

Tests used:
[1] = tested on: human DR molecules; conditions: cited from earlier work
[2] = tested on: PBMCs from lupus patients; conditions: randomly selected lupus patients; cited from earlier work
[3] = biological target: Class II HLA alleles (HLA DRB1); test: HLA binding assay (soluble MHC, competition with labeled control peptide); parameters: species or system human; conditions: retro-inverso peptide versus L-amino acid counterpart (SEQ ID NOS: 114 and 115); HLA DRB1 *0101, *0301, *0401, *0401, *0701, *1101, *1301 and *1501; FIG. 3
Procedure: HLA Binding Assay. Binding activity is analyzed at EpiVax (Providence, Rhode Island). The binding assay used (Steere A C et al., (2006), J Exp Med, 2003(4):961-71) yields an indirect measure of peptide-MHC affinity. Soluble HLA molecules are loaded onto a 96-well plate with the unlabeled experimental retro-inverso Tregitopes and labeled control peptide. Once the binding mixture reaches steady equilibrium (at 24 hours), the HLA-retro-inverso Tregitope complexes are captured on an ELISA plate coated with anti-human DR antibody and detected with a Europium-linked probe for the label (PerkinElmer, Waltham, MA). Time-resolved fluorescence measuring bound labeled control peptide is assessed by a SpectraMax® M5 unit (Spectramax, Radnor, PA). Binding of experimental retro-inverso Tregitopes is expressed as the percent inhibition of the labeled control peptide ([…]). The percent inhibition values for each experimental retro-inverso Tregitope (across a range of molar concentrations) is used to calculate the concentration at which it inhibits 50% of the labeled control […] specific binding, i.e. the retro-inverso Tregitope's IC50. […]

[4] = tested on: CD4+ T cells; test: Tetanus Toxoid bystander assay, CD4+ T cell proliferation in PBMC (CFSE); format: cell-based, human; conditions: TT-treated PBMCs of four donors; versus L-amino acid counterparts (SEQ ID NOS: 114 and 115); FIGS. 7A-7B, 8A-8B
Source text: The purpose of this experiment is to establish the ability of the instantly-disclosed retro-inverso Tregitopes (e.g., any one or more of SEQ ID NO: 1-29 and 42-107 and/or fragments and variants thereof, and optionally 1 to 12 additional amino acids distributed in any ratio on the N-terminus and/or C-terminus of the polypeptide of SEQ ID NOS: 1-29 and 42-107 as disclosed herein, wherein each of the amino acids of SEQ ID NOS: 1-29 and 42-107 (and in aspects, the optional extensions thereof) except for glycine are in the D-amino acid configuration) of the instant disclosure to suppress the proliferation CD4+ Tcells, including antigen stimulated CD4+ effector memory T cells, which in aspects is by either direct (engagement and activation of TReg) or indirect (modulation of APC phenotype) means. […]

Row | Sequence | binding to soluble HLA class II molecules [1] | lupus patients whose PBMCs contain T cells that proliferate in response to the peptide [2] [%] | IC50 values, binding to HLA DRB1 alleles [3] | ability to reduce CD4+ cell proliferation [4]
1 | RIHMVYSKRSGKPRGYAFIEY (listed as Homo sapiens) [peptide 131-151] | binds to a large panel of human DR molecules | 40 |  | 
2 | KGYIFSHGTFHITLI [SEQ ID NO: 100] |  |  | scored comparably; also recorded: comparable affinity | comparable ability
3 | DQHLVTLVSVVTYTSNYQEE [SEQ ID NO: 16] |  |  | scored comparably; also recorded: comparable affinity | comparable ability
